# Reference: the supplement of paper PMC10307832
# Key:
# Assay in all cases: relative viability (nuclei count vs DMSO), 5 days (fraction); higher = more cells survive
# Ibrutinib + Phenformin = compound: C=CC(=O)N1CCC[C@@H](n2nc(-c3ccc(Oc4ccccc4)cc3)c3c(N)ncnc32)C1 [Ibrutinib] + N=C(N)NC(=N)NCCc1ccccc1 [Phenformin] (partner 250 µM)
# How it was run: (§1)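 Lung cancer cell lines were pin-tool dosed in 1536-well plates on the day after seeding, with either a lone drug or a fixed anchor-drug dose plus five library-drug doses (not always all listed) in √10 steps. Nuclei were counted on 4× images after 5 days. Relative viability is the ratio of treated-well to vehicle-well nuclei counts, with each value a median of duplicate plates.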
# BMX-IN-1 + Trametinib = compound: C=CC(=O)Nc1cc(-n2c(=O)ccc3cnc4ccc(-c5ccc(NS(C)(=O)=O)cc5)cc4c32)ccc1C [BMX-IN-1] + CC(=O)Nc1cccc(-n2c(=O)n(C3CC3)c(=O)c3c(Nc4ccc(I)cc4F)n(C)c(=O)c(C)c32)c1 [Trametinib] (partner 0.02 µM)
# How it was run: as §1
# BMX-IN-1 + Alpelisib = compound: C=CC(=O)Nc1cc(-n2c(=O)ccc3cnc4ccc(-c5ccc(NS(C)(=O)=O)cc5)cc4c32)ccc1C [BMX-IN-1] + Cc1nc(NC(=O)N2CCC[C@H]2C(N)=O)sc1-c1ccnc(C(C)(C)C(F)(F)F)c1 [Alpelisib] (partner 2 µM)
# How it was run: as §1
# PAC-1 + Dasatinib = compound: C=CCc1cccc(/C=N/NC(=O)CN2CCN(Cc3ccccc3)CC2)c1O [PAC-1] + Cc1nc(Nc2ncc(C(=O)Nc3c(C)cccc3Cl)s2)cc(N2CCN(CCO)CC2)n1 [Dasatinib] (partner 0.075 µM)
# How it was run: as §1
Cell Line,relative viability (Ibrutinib + Phenformin; first compound 0.005 µM),relative viability (Ibrutinib + Phenformin; first compound 0.01581 µM),relative viability (Ibrutinib + Phenformin; first compound 0.05 µM),relative viability (Ibrutinib + Phenformin; first compound 0.1581 µM),relative viability (Ibrutinib + Phenformin; first compound 0.5 µM),relative viability (BMX-IN-1 + Trametinib; first compound 0.02 µM),relative viability (BMX-IN-1 + Trametinib; first compound 0.2 µM),relative viability (BMX-IN-1 + Trametinib; first compound 0.6325 µM),relative viability (BMX-IN-1 + Trametinib; first compound 2 µM),relative viability (BMX-IN-1 + Alpelisib; first compound 0.02 µM),relative viability (BMX-IN-1 + Alpelisib; first compound 0.2 µM),relative viability (BMX-IN-1 + Alpelisib; first compound 0.6325 µM),relative viability (BMX-IN-1 + Alpelisib; first compound 2 µM),relative viability (PAC-1 + Dasatinib; first compound 0.02 µM),relative viability (PAC-1 + Dasatinib; first compound 0.06325 µM),relative viability (PAC-1 + Dasatinib; first compound 0.2 µM),relative viability (PAC-1 + Dasatinib; first compound 2 µM)
HOP-62,0.759,0.621,0.696,0.724,0.804,0.44,0.379,0.366,0.341,0.813,0.918,0.926,0.914,0.665,0.68,0.623,0.641
IA-LM,–,–,–,–,–,–,–,–,–,0.854,0.697,1.07,0.916,–,–,–,–
LC-2-ad,0.552,0.579,0.56,0.478,0.531,1.02,0.945,0.929,0.94,0.915,0.962,0.998,0.898,0.552,0.629,0.603,0.489
LCLC-97TM1,0.452,0.457,0.449,0.504,0.411,0.213,0.27,0.204,0.176,0.283,0.222,0.244,0.294,0.692,0.848,0.748,0.911
LCLC-103H,0.334,0.282,0.3,0.369,0.275,0.753,0.758,0.736,0.683,1.01,0.972,1.09,0.875,0.485,0.472,0.409,0.487
LK-2,–,0.529,0.396,0.357,0.282,0.943,1.02,0.793,0.847,1.75,1.43,1.04,0.993,0.259,0.332,0.241,0.31
LOU-NH91,0.59,0.642,0.557,0.711,0.45,–,0.814,0.849,0.784,–,0.686,0.768,0.709,0.505,0.551,0.541,0.599
LU99A,0.889,0.8,0.837,1.05,0.846,0.515,0.548,0.548,0.572,0.482,0.659,0.526,0.532,0.549,0.579,0.498,0.505
LXF-289,0.537,0.472,0.515,0.465,0.497,0.722,0.704,0.761,0.752,1.12,1.14,1.11,1.07,0.228,0.226,0.192,0.223
NCI-H23,0.674,0.777,0.789,0.861,0.797,0.38,0.423,0.318,0.361,0.617,0.793,0.603,0.692,0.734,0.887,0.826,0.948
NCI-H322M,0.715,0.675,0.675,0.676,0.569,0.501,0.504,0.532,0.443,0.882,0.825,0.757,0.772,0.226,0.264,0.259,0.256
NCI-H358,0.23,–,0.178,0.202,0.174,0.119,0.124,0.127,0.123,0.861,0.881,0.937,0.81,0.179,0.164,0.158,0.135
NCI-H441,1.01,0.82,0.912,0.988,1.01,0.451,0.53,0.613,0.548,0.658,0.917,1.04,0.641,0.593,0.628,0.438,0.573
NCI-H460,0.636,0.46,0.463,0.572,0.592,0.131,0.136,0.236,0.181,0.827,0.752,0.566,0.568,0.524,0.477,0.464,0.521
NCI-H520,0.431,0.606,0.583,0.634,0.356,0.892,0.721,0.741,0.733,1.26,0.922,0.873,0.753,0.172,0.213,0.19,0.225
NCI-H522,0.627,0.545,0.688,0.582,0.622,0.687,0.805,0.728,0.744,–,–,–,–,0.881,0.91,0.894,0.899
NCI-H1299,–,–,–,–,–,–,–,–,–,1.14,1.17,1.1,1.16,–,–,–,–
NCI-H1563,0.695,0.668,0.652,0.65,0.657,–,–,–,–,0.997,0.902,0.904,0.893,0.446,0.431,0.44,0.495
NCI-H1623,0.571,0.532,0.509,0.347,0.27,–,–,–,–,–,–,–,–,0.513,0.556,0.605,0.533
NCI-H1648,–,–,–,–,–,0.435,0.585,0.469,0.495,–,–,–,–,–,–,–,–
NCI-H1650,0.403,0.358,0.353,0.348,0.287,0.576,0.539,0.682,0.611,–,–,–,–,0.363,0.305,0.263,0.361
NCI-H1703,–,–,–,–,–,–,–,–,–,0.359,0.254,0.269,0.252,–,–,–,–
NCI-H2342,0.472,0.56,0.57,0.455,0.452,0.834,0.768,0.85,0.791,–,–,–,–,0.302,0.311,0.295,0.302
SW 900,–,–,0.588,0.669,0.618,1.12,0.831,0.816,0.807,–,–,–,–,0.766,0.467,0.435,0.927
